From publication PMC10929621, “An Engineered Biarylitide Cross-Linking P450 from RiPP Biosynthesis Generates Alternative Cyclic Peptides” (Organic Letters, 2024)

System: Blt-M1 (P450Blt A231V-H234L)
Test: Deuterium loss on cyclization by Blt-M1
Type: biochemical, Micromonospora sp. MW-13
Details: deuterium at C2 of His-3, HRMS
Experimental: Finally, we sought to clarify the nature of the cross-link within 5 formed by Blt-M1 as no equivalent cross-linked tripeptide natural product has been identified. Scaled enzymatic cyclization of Nle-2 (N-terminal Met residue was replaced with norleucine (Nle) to avoid sulfoxidation due to the release of reactive oxygen intermediates during catalysis) and purification of Nle-5 were then performed. […] We turned to the use of peptide deuteration to resolve this cross-link, which based on WT biarylitide reactivity could be either C–C or C–N. This required synthesis and turnover of a deuterated version of Nle-2 with deuterium at C2 of the His-3 residue (Nle-2^3d).[17] […]
The UV-visible spectra of the P450 enzymes were obtained using a Jasco V-750 spectrophotometer as has been previously reported.1 The spectra were measured until it reached a stable peak. CO difference spectra were obtained using a Jasco V-750 spectrophotometer at 30 °C as has been previously described.1 The UV-vis spectra were measured between 390–600 nm every 5 mins until the spectra was stable.1, 4 Substrate interaction with the P450s was measured using UV-visible absorbance spectroscopy carried out on a Jasco V-750 spectrophotometer according to previously reported protocol.1 Amplitudes of the different spectra were extrapolated (ΔA = Amax - Amin) and plotted against the substrate concentration. […]

## NleRHLY (sidechain bridge or staple) [Nle-5, cross-linked peptide from enzymatic cyclization of Nle-2 by Blt-M1]
  loss of deuterium upon cyclization: loss of deuterium
